{
  "source": "patent US9926573B2",
  "about": "“Glyphosate-tolerant gene and use thereof” (priority 2012, dated 2018)",
  "key": {"[1]": {"system": "E. Coli BL21 (DE3) transformed with LS-EPSPS-PET", "assay": "Growth (OD) of E. coli strain transformed with LS-EPSPS-PET in glyphosate-containing LB", "format": "cell-based", "conditions": "compared with strain with empty vector PET-28a", "protocol": "The LS-EPSPS gene was cloned into the vector PET-28a, and transferred to E. Coli BL21 (DE3), to obtain a transgenic strain. The reading frame of the transgenic strain was expressed under control of the T7 promoter in the PET system.\nThe stain transformed with LS-EPSPS-PET or PET-28a (empty vector, control) was incubated in LB, and grown in an LB liquid medium containing Kan at 37° C. when OD600 reached […], until the OD value reached about 0.4. […] These indicate that the LS-EPSPS gene has glyphosate-resistant/tolerant activity."}, "[2]": {"system": "callus of the transgenic Arabidopsis thaliana", "assay": "Callus growth on glyphosate-containing MS medium, LS-EPSPS transgenic", "format": "cell-based", "conditions": "two weeks, 25° C.", "protocol": "(§1) The transgenic Arabidopsis thaliana plant was obtained by screening. The stem of the tissue cultured seedling of the non-transgenic and the LS-EPSPS transgenic Arabidopsis thaliana was used as an explant for callus induction in an MS medium containing 2.0 mg/L of 6-BA and 0.1 mg/L of NAA. […] The results were statistically calculated after two weeks."}, "EPSPase [3]": {"target": "T1, EPSPase (Liriope spicata, UniProt A0A0N9BED5)", "T1 sequence (A0A0N9BED5 66-518)": "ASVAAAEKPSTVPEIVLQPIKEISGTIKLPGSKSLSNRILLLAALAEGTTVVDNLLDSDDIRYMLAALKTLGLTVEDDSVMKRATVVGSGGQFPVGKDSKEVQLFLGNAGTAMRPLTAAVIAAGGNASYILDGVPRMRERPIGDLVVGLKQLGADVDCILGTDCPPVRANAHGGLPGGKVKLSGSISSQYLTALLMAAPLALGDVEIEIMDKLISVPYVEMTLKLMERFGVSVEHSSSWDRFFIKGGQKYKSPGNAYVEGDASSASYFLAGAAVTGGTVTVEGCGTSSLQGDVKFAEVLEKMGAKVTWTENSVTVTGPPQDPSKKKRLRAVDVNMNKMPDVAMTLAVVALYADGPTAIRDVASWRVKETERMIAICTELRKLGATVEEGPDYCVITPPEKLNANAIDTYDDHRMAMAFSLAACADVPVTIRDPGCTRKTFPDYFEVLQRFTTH", "assay": "Ex-vivo EPSPase activity assay, crude extract", "format": "biochemical", "conditions": "25° C., 15 min", "protocol": "(§2) 0.5 g of the seedlings of Ophiopogon japonicus, Liriope spicata, Liriope platyphylla and wide-type Arabidopsis thaliana were weighed, added with 150 ml of an extraction buffer A [containing 100 mmol/L Tris pH 7.5, 1 mmol/L EDTA, 10% (V/V) glycerol, 1 mg/L BSA, 10 mmol/L Vitamin C (Vc), 1 mmol/L benzamidine, 5 mmol/L DTT, and 20 mg/ml PVPP], ground and homogenized, filtered through 6 layers of gauze, and centrifuged at 12000 rpm and 4° C. […] Following the method as described by Lanzetta and Alvarez (1979), the reaction was developed for 30 min by adding 800 μl of malachite green hydrochloride, and then 100 μl of a 34% sodium citrate solution was added. After 30 min, the OD660 value was determined at 660 nm on a spectrophotometer. […] Logistic regression analysis was performed and the ED50 was calculated."}, "EPSPase [4]": {"target": "T2, EPSPase (Ophiopogon japonicus, UniProt A0A0N7E509)", "T2 sequence (A0A0N7E509 64-516)": "T1 sequence (A0A0N9BED5 66-518) with R62S, T74S, H172N, R329Q, V331I, A403V, N404A, V426A, T451A, T452K", "assay": "Ex-vivo EPSPase activity assay, crude extract", "format": "biochemical", "conditions": "25° C., 15 min", "protocol": "as §2"}, "EPSPase [5]": {"target": "T3, EPSPase (Liriope muscari (Liriope platyphylla), UniProt A0A0N9BED7)", "T3 sequence (A0A0N9BED7 66-518)": "T1 sequence (A0A0N9BED5 66-518) with T74A, T162S, V331I, N404T, A424G", "assay": "Ex-vivo EPSPase activity assay, crude extract", "format": "biochemical", "conditions": "25° C., 15 min", "protocol": "as §2"}, "EPSPase [6]": {"system": "EPSPase", "assay": "Ex-vivo EPSPase activity assay, crude extract", "format": "biochemical, wide-type Arabidopsis thaliana", "protocol": "as §2"}, "[7]": {"system": "callus of the control Arabidopsis thaliana", "assay": "Callus growth on glyphosate-containing MS medium, control", "format": "cell-based", "conditions": "two weeks, 25° C.", "protocol": "as §1"}},
  "note": "Numbering of substitutions follows the chain as printed. pEC50: −log10 of the molar value.",
  "data": [
    {"smiles": "O=C(O)CNCP(=O)(O)O", "note": "[glyphosate, N-(phosphonomethyl)glycine]", "values": [
      {"measurement": "ED50 value of the strain (logistic regression)", "setting": "[1]", "result": "greatly higher than that of the strain with the empty vector PET-28a"},
      {"measurement": "glyphosate concentration at which callus can still normally grow", "setting": "[2]", "result": 600, "unit": "mg/L"},
      {"measurement": "glyphosate concentration at which callus is inhibited in growth and becomes brown and yellow", "setting": "[2]", "result": 800, "unit": "mg/L"},
      {"measurement": "glyphosate concentration at which EPSPase activity declines obviously", "setting": "EPSPase [3]", "result": 1000, "unit": "µmol/L"},
      {"measurement": "glyphosate concentration at which EPSPase activity declines obviously", "setting": "EPSPase [4]", "result": 800, "unit": "µmol/L"},
      {"measurement": "glyphosate concentration at which EPSPase activity declines obviously", "setting": "EPSPase [5]", "result": 1000, "unit": "µmol/L"},
      {"measurement": "glyphosate concentration at which EPSPase activity declines obviously", "setting": "EPSPase [6]; 25° C., 15 min", "result": 500, "unit": "µmol/L"},
      {"measurement": "pEC50", "setting": "EPSPase [6]; logistic regression, read-out: ED50 for the EPSPase activity", "result": 3.25},
      {"measurement": "glyphosate concentration at which callus becomes yellow and gradually mortifies", "setting": "[7]", "result": 50, "unit": "mg·L"}
    ]}
  ]
}
